Laboratory results reported in patent publication EP4741401A1, “BENZOTHIAZOIMIDAZOLYL COMPOUND AND USE THEREOF” (ER Stress Research Institute, Inc., priority 2023, dated 2025).

Columns and labels:
[1] = tested on: cell growth inhibition by endoplasmic reticulum stress; conditions: from WO2019/131656A; read-out: 50% inhibitory concentration for cell growth inhibition by endoplasmic reticulum stress; cited from earlier work
[2] = tested on: 293A cells; assay: Cytoprotection under endoplasmic reticulum stress conditions (Tm-induced cell death); assay type: cell-based; conditions: compound concentration inhibiting Tm-induced cell death by 50%, Tm 0.2 µg/mL, reporter cells
Experimental: The reporter cells same as those used in Example 1 were placed in each well of a 96-well assay plate and were treated with Tm at a final concentration of 0.2 µg/mL and the test compound. […]

[3] = tested on: endoplasmic reticulum stress response induced by Tm; assay: Suppression of endoplasmic reticulum stress response (ERSE2-UPRE-AARE-EGFP reporter fluorescence); assay type: cell-based; conditions: 293A reporter cells, incubated at 37°C overnight, read-out: Suppression rank of endoplasmic reticulum stress response
Experimental: A solution of the compound synthesized in "(1) Synthesis of benzothiazoimidazolyl compound" was appropriately diluted with a DMEM solution containing 10% fetal bovine serum (FBS), and the diluted solution was added to a 384-well assay plate at 10 µL/well. Next, 30 µL of a culture medium containing the reporter cells and 10 µL of the Tm solution were mixed, and the mixture was added to the 384-well assay plate at 40 µL/well such that the cell density was 18 × 10^3 cells/well, and the whole was incubated at 37°C overnight.
A multi-plate reader Citation 3 (Bio-Tek) was used to determine the EGFP fluorescence intensity (excitation wavelength: 485 nm, fluorescence wavelength: 528 nm) when the test compound was added. A smaller fluorescence intensity indicates more suppression of the increase in activity of the endoplasmic reticulum stress marker induced by Tm.
A "control" containing the Tm solution and, in place of the test compound solution, an equal volume of DMSO was subjected to the measurement of fluorescence intensity in a similar manner. In addition, a "background" containing a solution prepared in the same manner as for the Tm solution except that no Tm was added and containing, in place of the test compound solution, an equal volume of DMSO was subjected to the measurement of fluorescence intensity in a similar manner.
The fluorescence intensity was determined while the concentration of the test compound was varied, and the 50% effective concentration (IC50) of suppressing the endoplasmic reticulum stress response induced by Tm was calculated.

[4] = tested on: endogenous molecular chaperones; assay: Induction of endogenous molecular chaperones in cells; assay type: cell-based; conditions: applied to cells
[5] = tested on: Familial neurogenic diabetes insipidus model mice; assay: Suppression of urine output increase in FNDI model mice; assay type: in vivo; conditions: oral, 30 mg/kg/day or 100 mg/kg/day, once daily for 28 days
Experimental: Familial neurogenic diabetes insipidus model mice created by Arima et al. at Nagoya University and carrying a knock-in mutation (Cys98stop) in the neurophysin II gene that causes familial neurogenic diabetes insipidus (FNDI) in humans (Am J Physiol Regul Integr Comp Physiol 2009 296:R1641-9) were divided into two groups. To each group, an IBT-30-containing preparation was forcibly administered orally such that the dosage of IBT-30 was 30 mg/kg/day or 100 mg/kg/day (n=6). The IBT-30-containing preparation was prepared as a suspension of IBT-30 at a final concentration of 0.5% by weight in carboxymethyl cellulose. The oral administration was performed once daily via a feeding tube for 28 days. The urine output was measured daily throughout the 28 days when IBT-30 was administered.

[6] = tested on: FNDI model mice; assay: Number of mutant protein aggregates (inclusion bodies) in vasopressin neurons of brain tissue; assay type: in vivo; conditions: oral, 100 mg/kg/day, once daily for 28 days, inclusion bodies of 4.5 µm or more in vasopressin neurons
Experimental: To FNDI model mice, the above IBT-30-containing preparation was forcibly administered orally once daily for 28 days such that the dosage of IBT-30 was 100 mg/kg/day (n=6). In a similar manner, a vehicle preparation free from IBT-30 was forcibly administered orally (n=6). […]

O=C(O)CCCc1ccccc1 [Compound 4-PBA, 4-phenylbutyric acid, reference compound]
IC50 [1]: 5400 µM
IC50 [2]: 4000 µM

CS(=O)(=O)c1ccc2c(c1)sc1nc(-c3ccccc3)cn12 [IBT-21, reference compound]
IC50 [1]: 0.61 µM
IC50 [3]: 0.1 to 1 µM
IC50 [2]: 0.61 µM

COc1cc(-c2cn3c(n2)sc2cc(S(C)(=O)=O)ccc23)ccc1C(F)(F)F [IBT-30, 2-(3-Methoxy-4-(trifluoromethyl)phenyl)-7-(methylsulfonyl)benzo[d]imidazo[2,1-b]thiazole]
induction of endogenous molecular chaperones [4]: not induced
IC50 [3]: ≤ 0.01 µM
urine output [5]: decreases in a dose-dependent manner
number of inclusion bodies (mutant protein aggregates) [6]: significantly reduced
IC50 [2]: 0.004 µM

CCCc1ccc(-c2cn3c(n2)sc2cc(S(C)(=O)=O)ccc23)cc1 [IBT-67, 7-(methylsulfonyl)-2-(4-propylphenyl)benzo[d]imidazo[2,1-b]thiazole]
IC50 [3]: 0.1 to 1 µM
IC50 [2]: 0.37 µM

Cc1ccc2c(c1)sc1nc(-c3ccc(C(F)(F)F)cc3)cn12 [IBT-68, 7-methyl-2-(4-(trifluoromethyl)phenyl)benzo[d]imidazo[2,1-b]thiazole]
IC50 [3]: 0.01 to 0.1 µM
IC50 [2]: 0.1 µM

C#CCCC1(CCOc2cccc(-c3cn4c(n3)sc3cc(S(C)(=O)=O)ccc34)c2)N=N1 [IBT-70, 2-(3-(2-(3-(but-3-yn-1-yl)-3H-diazirin-3-yl)ethoxy)phenyl)-7-(methylsulfonyl)benzo[d]imidazo[2,1-b]thiazole 2,2,2-trifluoroacetate]
IC50 [3]: 0.1 to 1 µM
IC50 [2]: 0.43 µM

FC(F)(F)c1ccc(-c2cn3c(n2)sc2c(Br)cccc23)cc1 [IBT-72, 8-bromo-2-(4-(trifluoromethyl)phenyl)benzo[d]imidazo[2,1-b]thiazole]
IC50 [3]: 0.1 to 1 µM
IC50 [2]: 0.63 µM

C#CCCC1(CCNC(=O)CCc2cccc3c2sc2nc(-c4ccc(C(F)(F)F)cc4)cn23)N=N1 [IBT-73, N-(2-(3-(but-3-yn-1-yl)-3H-diazirin-3-yl)ethyl)-3-(2-(4-(trifluoromethyl)phenyl)benzo[d]imidazo[2,1-b]thiazol-8-yl)propanamide 2,2,2-trifluoroacetate]
IC50 [3]: > 1 µM
IC50 [2]: 8.4 µM

CC(C)(C)OC(=O)NCCOCCNC(=O)CCc1cccc2c1sc1nc(-c3ccc(C(F)(F)F)cc3)cn12 [IBT-74, tert-butyl (2-(2-(3-(2-(4-(trifluoromethyl)phenyl)benzo[d]imidazo[2,1-b]thiazol-8-yl)propanamido)ethoxy)ethyl)carbamate]
IC50 [3]: > 1 µM
IC50 [2]: 3.7 µM

CC(C)(C)OC(=O)NCCOCCOCCOc1cccc(-c2cn3c(n2)sc2cc(S(C)(=O)=O)ccc23)c1 [IBT-76, tert-butyl (2-(2-(2-(3-(7-(methylsulfonyl)benzo[d]imidazo[2,1-b]thiazol-2-yl)phenoxy)ethoxy)ethoxy)ethyl)carbamate]
IC50 [3]: > 1 µM
IC50 [2]: 4.9 µM

C[C@H](CCC(=O)NCCS(=O)(=O)O)[C@H]1CC[C@H]2[C@@H]3[C@@H](O)C[C@@H]4C[C@H](O)CC[C@]4(C)[C@H]3CC[C@]12C [TUDCA, tauroursodeoxycholic acid, reference compound]
IC50 [1]: 2100 µM
IC50 [2]: 20 µM

CCCC(=O)NCCc1csc(-c2ccc(Cl)cc2)n1 [azoramide]
IC50 [1]: 86 µM
